Some test systems named below: A498 renal; EKVX NSCLC; NCI-H460 lung; NCI-H522 lung; SN12C renal; SNB-19 CNS; SNB-75 CNS; U251 CNS; MDA-MB-231 breast; BT-549 breast.
Holding throughout (test): NCI-60 cell line screen, 48 h

Structures are written as SMILES. “And” between values parts separate entries of the source, which are not always exact repeats. Identical values can stand only once.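 Exposure lasted 48 hours, with cells grown in 96-well plates and compounds tested at five concentrations. Here, GI50 denotes the concentration required for 50% inhibition of growth. TGI denotes the concentration required for complete inhibition of growth.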

With `O=C1CCC2CCOc3ccc(O)c1c32` (stereo unspecified), the TGI in the experiment with A498 renal, with EKVX NSCLC, with NCI-H460 lung, in the experiment on NCI-H522 lung, with SN12C renal and in the experiment on SNB-19 CNS was over 100 µM throughout. Besides, the TGI in the experiment on SNB-75 CNS and with U251 CNS was over 100 µM throughout.

On to `Oc1ccccc1C=Nc1ccccc1N=Cc1ccccc1O`, for which the TGI is over 100 µM with EKVX NSCLC; over 100 µM in the experiment with NCI-H460 lung; 45.7 µM in the experiment on NCI-H522 lung; over 100 µM with SN12C renal; over 100 µM in the experiment with SNB-19 CNS; over 100 µM with U251 CNS.

As to `COc1ccc(/C=C/C(C(=O)O)C(=O)O)cc1`, the TGI in the experiment on EKVX NSCLC, in the experiment on NCI-H460 lung, in the experiment with NCI-H522 lung, with SN12C renal, with SNB-19 CNS and in the experiment with U251 CNS was over 100 µM in each case.

As for `CC(C)c1ccc(O)c(=O)cc1`, the TGI in the experiment on A498 renal is over 100 µM; with EKVX NSCLC it was over 100 µM; in the experiment on NCI-H460 lung, 81.4 µM; in the experiment with NCI-H522 lung, 24.5 µM and 24.4 µM; in the experiment on SN12C renal, over 100 µM; in the experiment on SNB-19 CNS, over 71.4 µM. The TGI in the experiment on SNB-75 CNS is over 100 µM; in the experiment with U251 CNS, over 80.9 µM. Also, the GI50 with MDA-MB-231 breast was 13.4 µM; in the experiment with NCI-H460 lung, 2.66 µM; in the experiment with NCI-H522 lung, 3.4 µM; in the experiment with SN12C renal, 5.85 µM; with SNB-19 CNS, 15.3 µM; in the experiment with SNB-75 CNS it was 75.4 µM. Further, in the experiment on U251 CNS, the GI50 was 6.53 µM.

With `CN(C)CCCC(=O)Nc1ccc(Cn2nnc3c2C(=O)c2nnn(Cc4ccc(NC(=O)CCCN(C)C)cc4)c2C3=O)cc1`, the GI50 in the experiment on A498 renal was 16 µM; in the experiment on BT-549 breast, 13.8 µM; in the experiment on NCI-H460 lung it was 2.82 µM; in the experiment with NCI-H522 lung, 2.15 µM; in the experiment on SN12C renal, 1.96 µM; with SNB-75 CNS, 1.69 µM. In addition, the GI50 in the experiment on U251 CNS is 2.69 µM. The TGI in the experiment on A498 renal stood at 45.3 µM; with BT-549 breast, 29.8 µM; with NCI-H460 lung, 10.8 µM; with NCI-H522 lung, 5.06 µM; in the experiment with SN12C renal it was 4 µM; in the experiment on SNB-75 CNS, 3.06 µM. The molecule also had a TGI in the experiment on U251 CNS of 6.62 µM.

Turning to `CCc1cccc(C(C)CC)c1NC(=O)CC1C(=O)Nc2ccccc2S1=O` (stereo unspecified), the TGI is over 100 µM in the experiment with A498 renal; over 100 µM with EKVX NSCLC; over 100 µM with NCI-H460 lung; over 100 µM with SN12C renal; over 100 µM with SNB-19 CNS; 49.4 µM in the experiment on SNB-75 CNS. The same molecule registered a TGI in the experiment with U251 CNS of 48.5 µM.

For `C=CCNC(=S)OCCCCCCCCCC`, the TGI in the experiment on A498 renal came out at 33.3 µM; with EKVX NSCLC, 39.6 µM; in the experiment with NCI-H460 lung, 33 µM; in the experiment on SN12C renal, 31.7 µM; in the experiment with SNB-19 CNS, 83.9 µM; in the experiment on SNB-75 CNS it was 49.8 µM. Moreover, the TGI in the experiment on U251 CNS came to 30.8 µM.

Consider `O=C(/C=C/c1ccc(Cl)cc1)c1ccncc1`, for which the TGI in the experiment on A498 renal was 88.7 µM; in the experiment with EKVX NSCLC, over 100 µM; in the experiment with NCI-H460 lung it was over 100 µM; in the experiment with NCI-H522 lung, over 100 µM; in the experiment on SN12C renal, over 100 µM; with SNB-19 CNS it was over 100 µM. The TGI with SNB-75 CNS was 83.6 µM; in the experiment on U251 CNS, over 100 µM.

Take `COC(=O)C(=O)C(C#N)c1ccc(Cl)c(Cl)c1` (stereo unspecified): the TGI in the experiment on EKVX NSCLC, in the experiment on NCI-H522 lung, with SN12C renal, with SNB-75 CNS and with U251 CNS was over 100 µM throughout.

For `Cc1nn(C)c(=S)n(C)c1=O`, the TGI with A498 renal is 37.7 µM; in the experiment with EKVX NSCLC, 44.9 µM; in the experiment on NCI-H460 lung it was over 100 µM; in the experiment on NCI-H522 lung, 0.822 µM; in the experiment with SN12C renal it was 43.4 µM; with SNB-19 CNS, 41 µM. The TGI in the experiment with SNB-75 CNS came out at 2.73 µM; in the experiment on U251 CNS, 30.1 µM.

`CC1=C(c2cc(C(=O)Nc3cccc(C(F)(F)F)c3)nc(NC#N)n2)Sc2ccccc2N1`: the TGI in the experiment on A498 renal, in the experiment with EKVX NSCLC, with NCI-H460 lung, in the experiment with SN12C renal, in the experiment on SNB-19 CNS and in the experiment on SNB-75 CNS was over 100 µM in each case. The molecule further yielded a TGI in the experiment with U251 CNS of over 100 µM.

In the case of `NC(=S)N/N=C(\C(=O)Nc1ccc(Cl)c(Cl)c1)C1=NN(c2ccccc2)C(c2cccc([N+](=O)[O-])c2)CC1=O` (stereo unspecified), the TGI with A498 renal is over 100 µM; in the experiment on EKVX NSCLC it was over 100 µM; in the experiment with NCI-H460 lung, over 100 µM; in the experiment with SN12C renal, 38.5 µM; with SNB-19 CNS, over 100 µM; in the experiment with SNB-75 CNS, 99.7 µM. This molecule yielded a TGI in the experiment with U251 CNS of 17 µM.

Take `CN(C)CCNC(=O)c1cccc2c1nc(-c1ccccn1)c1ccccc12`: the TGI in the experiment on A498 renal was 27.2 µM; in the experiment on EKVX NSCLC it was 65.2 µM; with NCI-H460 lung, 23.2 µM; in the experiment on SN12C renal, over 100 µM; in the experiment with SNB-19 CNS, over 100 µM; in the experiment on SNB-75 CNS, 47.1 µM. In addition, the TGI in the experiment with U251 CNS is 34.5 µM.

On to `O=C(O/N=C1/CCCC/C1=C\c1ccccc1)c1ccc(Cl)cc1`, for which the TGI with EKVX NSCLC, with NCI-H460 lung, in the experiment with NCI-H522 lung, with SN12C renal, with SNB-19 CNS and in the experiment with SNB-75 CNS was over 100 µM in each case. This molecule yielded a TGI in the experiment with U251 CNS of over 100 µM.

With `Cc1cccc(N2C(=O)C(=O)C(c3nc4ccccc4s3)C(=O)C2=O)c1C`, the TGI with A498 renal, in the experiment with EKVX NSCLC, in the experiment with NCI-H522 lung, with SN12C renal, in the experiment on SNB-19 CNS and with SNB-75 CNS was over 100 µM each time. This molecule displayed a TGI with U251 CNS of over 100 µM.

`N#Cc1nc(Nc2ccc([N+](=O)[O-])cc2)sc1N`: the TGI in the experiment with A498 renal is over 100 µM; with EKVX NSCLC it was over 100 µM; in the experiment with NCI-H460 lung it was over 100 µM; with NCI-H522 lung it was 32.1 µM; in the experiment with SN12C renal it was over 74.6 µM; in the experiment on SNB-19 CNS it was over 95.1 µM. The TGI was over 100 µM in the experiment on SNB-75 CNS and over 48.5 µM in the experiment on U251 CNS.

Turning to `O=[N+]([O-])c1ccc(O)c2ncccc12`, the TGI in the experiment on BT-549 breast was > 100 µM and 24 µM; in the experiment on EKVX NSCLC, > 100 µM and 17.9 µM; with MDA-MB-231 breast, > 100 µM and 20.6 µM; in the experiment on NCI-H460 lung, > 100 µM and 11.4 µM; in the experiment on SN12C renal, > 100 µM and 58.1 µM; with SNB-19 CNS, > 100 µM and 32.6 µM. The TGI in the experiment with SNB-75 CNS is > 100 µM and 26 µM; in the experiment on U251 CNS, > 100 µM and 13.3 µM. The GI50 in the experiment on MDA-MB-231 breast is 38.4 µM and 4.4 µM.

These data come from PubChem BioAssay (NCI).
